Experiments:
[1] = tested on: β-Glucosidase derived from A. niger; assay: Reactivity toward various isoflavone glycosides (HPLC); assay type: biochemical, Aspergillus niger; design: glucoside / aglycon: unit not given here; conditions: 55 °C, pH 4.0
Protocol: (§1) Diglycosidase was diluted with an acetate buffer of pH 4.0 to prepare a 0.75 AU/mL enzyme solution. As references, a similar operation was conducted using β-glucosidase (manufactured by Fluka) derived from Aspergillus niger, β-glucosidase (manufactured by Sigma) derived from almond, β-xylosidase derived from pectinase G (manufactured by Amano Enzyme Inc.). Each of purified products of isoflavone glycosides (glycitin, acetylglycitin, malonylglycitin, daidzin, acetyldaidzin, malonyldaidzin, genistin, acetylgenistin, malonylgenistin, all manufactured by Nacalai Tesque, Inc.) was dissolved in methanol to prepare each 2 mM substrate solution. The reaction was carried out by mixing 10 μL of a substrate solution, 200 μL of 20 mM acetate buffer (pH 4.0), and 40 μL of each purified enzyme solution at a total liquid volume of 250 μL. The reaction was carried out at 55° C. and isolation of an aglycon isoflavone from an isoflavone glycoside in the reaction mixture was detected by HLPC at 0, 1, 3, and 6 hours of the reaction.
(§2) To the reaction mixture was added 700 μL of ethanol, followed by stirring and ultrasonication. After centrifugation at 15,000 rpm and 4° C. for 10 minutes, the supernatant was filtered through a filter and then the filtrate was applied to HPLC.
(§3) The isoflavone glycoside and aglycon isoflavone contained in the filtrate was separated and detected by a high performance liquid chromatography (HPLC, Shimadzu CLASS LC-10 system) using TOSOH TSK gel ODS-80TM column (manufactured by Tosoh Corporation). […] The absorbance at 260 nm was detected by a UV detector (Shimadzu, SPD-10AV). Using purified products (manufactured by Nacalai Tesque, Inc.) of the above isoflavone glycosides and aglycon isoflavones, the isoflavone glycoside and aglycon isoflavone were quantitatively determined according to a calibration curve method. By the way, unless otherwise stated, the measuring conditions of HPLC herein mean those described in the example.

[2] = tested on: Diglycosidase derived from A. fumigatus; assay: as above; assay type: biochemical, Aspergillus fumigatus; design: unit not given here; conditions: 55 °C, pH 4.0
Protocol: as §1, §2, §3

[3] = tested on: β-Glucosidase derived from almond; assay: as above; assay type: biochemical; design: unit not given here; conditions: 55 °C, pH 4.0
Protocol: as §1, §2, §3

[4] = tested on: β-Xylosidase derived from pectinase G; assay: as above; assay type: biochemical; design: unit not given here; conditions: 55 °C, pH 4.0
Protocol: as §1, §2, §3

[5] = tested on: Purified diglycosidase; assay: Influence of free glucose on diglycosidase activity; assay type: biochemical, Penicillium multicolor IAM7153; conditions: isolated aglycon amount at glucose 0% and 0.5 hour = 100%
Protocol: Purified diglycosidase was diluted with 20 mM acetate buffer of pH 4.0 to prepare a 0.75 AU/mL enzyme solution.
With a glucose solution was mixed 10 μL of each 2 mM substrate solution described in Example 2, and 20 mM acetate buffer of pH 4.0 was added thereto to be a liquid volume of 210 μL. Further, 40 μL of the enzyme solution was added and reaction was carried out at a final liquid volume of 250 μL. Adjustment of the glucose solution to be added allows glucose to exist in the reaction mixture in the range of 0 to 20%. The reaction was carried out at 55° C. and the existence of isoflavone glycosides and aglycon isoflavones was detected by HLPC at 0, 0.5, 1, and 3 hours of the reaction.

SMILES	aglycon ([1]; Reaction time 0 h)	glucoside ([1]; Reaction time 0 h)	aglycon ([1]; Reaction time 1 h)	glucoside ([1]; Reaction time 1 h)	aglycon ([1]; Reaction time 3 h)	glucoside ([1]; Reaction time 3 h)	aglycon ([1]; Reaction time 6 h)	glucoside ([1]; Reaction time 6 h)	aglycon ([2]; Reaction time 0 h)	glucoside ([2]; Reaction time 0 h)	aglycon ([2]; Reaction time 1 h)	glucoside ([2]; Reaction time 1 h)	aglycon ([2]; Reaction time 3 h)	glucoside ([2]; Reaction time 3 h)	aglycon ([2]; Reaction time 6 h)	glucoside ([2]; Reaction time 6 h)	aglycon ([3]; Reaction time 0 h)	glucoside ([3]; Reaction time 0 h)	aglycon ([3]; Reaction time 1 h)	glucoside ([3]; Reaction time 1 h)	also measured
O=C(O)CC(=O)OC[C@H]1O[C@@H](Oc2cc(O)c3c(=O)c(-c4ccc(O)cc4)coc3c2)[C@H](O)[C@@H](O)[C@@H]1O [malonylgenistin, 6″-O-malonylgenistin]	0	100	3.1	96.9	7	93	12.1	87.9	0	100	2.4	97.6	5.2	94.8	8.2	91.8	0	100	0	100	aglycon ([3]; Reaction time 3 h): 0; glucoside ([3]; Reaction time 3 h): 100; aglycon ([3]; Reaction time 6 h): 0; glucoside ([3]; Reaction time 6 h): 100; aglycon ([4]; Reaction time 0 h): 0; glucoside ([4]; Reaction time 0 h): 100; aglycon ([4]; Reaction time 1 h): 0; glucoside ([4]; Reaction time 1 h): 100; aglycon ([4]; Reaction time 3 h): 0.6; glucoside ([4]; Reaction time 3 h): 99.4; aglycon ([4]; Reaction time 6 h): 2; glucoside ([4]; Reaction time 6 h): 98; Isolation of isoflavone aglycons by diglycosidase in presence of glucose ([5]; Glucose concentration 0 %): 100%; Isolation of isoflavone aglycons by diglycosidase in presence of glucose ([5]; Glucose concentration 2 %): 152%; Isolation of isoflavone aglycons by diglycosidase in presence of glucose ([5]; Glucose concentration 4 %): 164.7%; Isolation of isoflavone aglycons by diglycosidase in presence of glucose ([5]; Glucose concentration 8 %): 163.5%; Isolation of isoflavone aglycons by diglycosidase in presence of glucose ([5]; Glucose concentration 20 %): 139.5%
COc1cc2c(=O)c(-c3ccc(O)cc3)coc2cc1O[C@@H]1O[C@H](COC(C)=O)[C@@H](O)[C@H](O)[C@H]1O [acetylglycitin, 6″-O-acetylglycitin]	0	100	0	100	1	99	1.9	98.1	0	100	6	94	13.5	86.5	22.7	77.3	0	100	0	100	aglycon ([3]; Reaction time 3 h): 0; glucoside ([3]; Reaction time 3 h): 100; aglycon ([3]; Reaction time 6 h): 0; glucoside ([3]; Reaction time 6 h): 100; aglycon ([4]; Reaction time 0 h): 0; glucoside ([4]; Reaction time 0 h): 100; aglycon ([4]; Reaction time 1 h): 0; glucoside ([4]; Reaction time 1 h): 100; aglycon ([4]; Reaction time 3 h): 0; glucoside ([4]; Reaction time 3 h): 100; aglycon ([4]; Reaction time 6 h): 0; glucoside ([4]; Reaction time 6 h): 100; Isolation of isoflavone aglycons by diglycosidase in presence of glucose ([5]; Glucose concentration 0 %): 100%; Isolation of isoflavone aglycons by diglycosidase in presence of glucose ([5]; Glucose concentration 2 %): 100.9%; Isolation of isoflavone aglycons by diglycosidase in presence of glucose ([5]; Glucose concentration 4 %): 100.9%; Isolation of isoflavone aglycons by diglycosidase in presence of glucose ([5]; Glucose concentration 8 %): 100.9%; Isolation of isoflavone aglycons by diglycosidase in presence of glucose ([5]; Glucose concentration 20 %): 100.9%
COc1cc2c(=O)c(-c3ccc(O)cc3)coc2cc1O[C@@H]1O[C@H](CO)[C@@H](O)[C@H](O)[C@H]1O [glycitin]	0	100	49.5	50.5	88.3	11.7	95.5	4.5	0	100	0.5	99.5	0	100	0	100	0	100	1.6	98.4	reactivity of β-glucosidase derived from Aspergillus niger (in words) [1]: act well; aglycon ([3]; Reaction time 3 h): 1.9; glucoside ([3]; Reaction time 3 h): 98.1; aglycon ([3]; Reaction time 6 h): 1.9; glucoside ([3]; Reaction time 6 h): 98.1; aglycon ([4]; Reaction time 0 h): 0; glucoside ([4]; Reaction time 0 h): 100; aglycon ([4]; Reaction time 1 h): 0.8; glucoside ([4]; Reaction time 1 h): 99.2; aglycon ([4]; Reaction time 3 h): 2.4; glucoside ([4]; Reaction time 3 h): 97.6; aglycon ([4]; Reaction time 6 h): 4.5; glucoside ([4]; Reaction time 6 h): 95.5; Isolation of isoflavone aglycons by diglycosidase in presence of glucose ([5]; Glucose concentration 0 %): 100%; Isolation of isoflavone aglycons by diglycosidase in presence of glucose ([5]; Glucose concentration 2 %): 96%; Isolation of isoflavone aglycons by diglycosidase in presence of glucose ([5]; Glucose concentration 4 %): 99.7%; Isolation of isoflavone aglycons by diglycosidase in presence of glucose ([5]; Glucose concentration 8 %): 100.1%; Isolation of isoflavone aglycons by diglycosidase in presence of glucose ([5]; Glucose concentration 20 %): 92.8%
O=C(O)CC(=O)OC[C@H]1O[C@@H](Oc2ccc3c(=O)c(-c4ccc(O)cc4)coc3c2)[C@H](O)[C@@H](O)[C@@H]1O [malonyldaidzin, 6″-O-malonyldaidzin]	0	100	4.5	95.5	9.3	90.7	16	84	0	100	10	90	20.5	79.5	32.3	67.7	0	100	0	100	aglycon ([3]; Reaction time 3 h): 0; glucoside ([3]; Reaction time 3 h): 100; aglycon ([3]; Reaction time 6 h): 0; glucoside ([3]; Reaction time 6 h): 100; aglycon ([4]; Reaction time 0 h): 0; glucoside ([4]; Reaction time 0 h): 100; aglycon ([4]; Reaction time 1 h): 0.4; glucoside ([4]; Reaction time 1 h): 99.6; aglycon ([4]; Reaction time 3 h): 1.6; glucoside ([4]; Reaction time 3 h): 98.4; aglycon ([4]; Reaction time 6 h): 3.3; glucoside ([4]; Reaction time 6 h): 96.7; Isolation of isoflavone aglycons by diglycosidase in presence of glucose ([5]; Glucose concentration 0 %): 100%; Isolation of isoflavone aglycons by diglycosidase in presence of glucose ([5]; Glucose concentration 2 %): 125.3%; Isolation of isoflavone aglycons by diglycosidase in presence of glucose ([5]; Glucose concentration 4 %): 132.1%; Isolation of isoflavone aglycons by diglycosidase in presence of glucose ([5]; Glucose concentration 8 %): 125.4%; Isolation of isoflavone aglycons by diglycosidase in presence of glucose ([5]; Glucose concentration 20 %): 98.1%
